Molecular target: T1, alpha2B receptor (Homo sapiens, UniProt P18089)
T1 construct: expressed in transfected cells; host or cells: NIH-3T3
T1 sequence (P18089 1-450): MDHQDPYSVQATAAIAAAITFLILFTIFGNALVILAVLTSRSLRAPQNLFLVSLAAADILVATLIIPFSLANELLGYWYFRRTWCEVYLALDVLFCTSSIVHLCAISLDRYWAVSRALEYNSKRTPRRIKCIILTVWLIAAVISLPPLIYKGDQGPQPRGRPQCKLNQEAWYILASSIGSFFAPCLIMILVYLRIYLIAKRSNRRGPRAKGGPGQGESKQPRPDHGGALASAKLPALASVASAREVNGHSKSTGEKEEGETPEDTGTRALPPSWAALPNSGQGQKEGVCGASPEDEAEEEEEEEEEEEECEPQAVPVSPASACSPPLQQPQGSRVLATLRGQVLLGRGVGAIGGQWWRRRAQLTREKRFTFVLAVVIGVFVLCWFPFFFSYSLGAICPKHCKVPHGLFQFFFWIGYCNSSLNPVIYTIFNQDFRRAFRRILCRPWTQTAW
Assay: Receptor Selection and Amplification Technology (RSAT) assay, alpha2B
Format: cell-based
Conditions: NIH-3T3 cells; for EC50: NA = not active at concentrations less than 10 micromolar, read-out: RSAT EC50 (nM) Alpha 2B; for fraction of activity of the standard (brimonidine) attained, Alpha 2B (number in parenthesis): ratio of maximal effect to that of standard full agonist brimonidine
Text: The compounds of the invention are agonists of α2 adrenergic receptors, particularly they tend to be specific or selective agonists of α2B and/or to a lesser extent α2C adrenergic receptors, in preference over α2A adrenergic receptors. […] Al., 1995, Pharmacol. Toxicol. 76, pp. 308-311 (incorporated herein by reference) and is also described below. Another reference pertinent to this assay is Conklin et al. (1993) Nature 363:274-6, also incorporated herein by reference.
The RSAT assay measures a receptor-mediated loss of contact inhibition that results in selective proliferation of receptor-containing cells in a mixed population of confluent cells. The increase in cell number is assessed with an appropriate transfected marker gene such as β-galactosidase, the activity of which can be easily measured in a 96-well format. Receptors that activate the G protein, Gq, elicit this response. Alpha2 receptors, which normally couple to Gi, activate the RSAT response when coexpressed with a hybrid Gq protein that has a Gi receptor recognition domain, called Gq/i5^2.
NIH-3T3 cells are plated at a density of 2×10^6 cells in 15 cm dishes and maintained in Dulbecco's modified Eagle's medium supplemented with 10% calf serum. One day later, cells are cotransfected by calcium phosphate precipitation with mammalian expression plasmids encoding p-SV-β-galactosidase (5-10 μg), receptor (1-2 μg) and G protein (1-2 μg). 40 μg salmon sperm DNA may also be included in the transfection mixture. Fresh media is added on the following day and 1-2 days later, cells are harvested and frozen in 50 assay aliquots. Cells are thawed and 100 μl added to 100 μl aliquots of various concentrations of drugs in triplicate in 96-well dishes. Incubations continue 72-96 hr at 37°. After washing with phosphate-buffered saline, β-galactosidase enzyme activity is determined by adding 200 μl of the chromogenic substrate (consisting of 3.5 mM o-nitrophenyl-β-D-galactopyranoside and 0.5% nonidet P-40 in phosphate buffered saline), incubating overnight at 30 and measuring optical density at 420 nm. The absorbance is a measure of enzyme activity, which depends on cell number and reflects a receptor-mediated cell proliferation. The EC50 and maximal effect of each drug at each alpha2 receptor is determined. The efficacy or intrinsic activity is calculated as a ratio of the maximal effect of the drug to the maximal effect of a standard full agonist for each receptor subtype. Brimonidine, also called […], the chemical structure of which is shown below, is used as the standard agonist for the alpha2A, alpha2B and alpha2C receptors. [drawing 6]
The results of the RSAT assay with several exemplary compounds of the invention are disclosed in Table 3. […] NA stands for “not active” at concentrations less than 10 micromolar. As is known EC50 is the concentration at which half of a given compound's maximal activity is observed. It can be seen from the table that the compounds of the invention are specific or selective agonists of α2B and/or α2C adrenergic receptors, with no agonist like activity or only with insignificant agonist-like activity on α2A receptors.

EC50 | fraction of activity of the standard (brimonidine) attained, Alpha 2B (number in parenthesis) | SMILES
1530 nM | (0.47) | C[C@@H]1CCC[C@@H]1NC(=S)NCCO (relative stereo) [Compound 12, 1-(2-Hydroxy-ethyl)-3-(cis-2-methyl-cyclopentyl)-thiourea]
80 nM | (0.65) | C[C@H]1CCC[C@H](NC(=S)NCCO)C1 (single isomer, unassigned) [Compound 39, (cis)-1-(2-Hydroxy-ethyl)-3-(3-methyl-cyclohexyl)-thiourea]
204 nM | (0.61) | OCCNC(=S)NCC1CCCCC1 [Compound 1, 1-Cyclohexylmethyl-3-(2-hydroxy-ethyl)-thiourea]
189 nM | (0.54) | CC(C)[C@@H]1CC[C@@H](C)C[C@H]1NC(=S)NCCO [Compound 2, 1-(2-Hydroxy-ethyl)-3-(1R,2S,5R-2-isopropyl-5-methyl-cyclohexyl)-thiourea]
877 nM | (0.8) | OCCNC(=S)NCC1=CCCCC1 [Compound 3, 1-(Cyclohex-1-enylmethyl)-3-(2-hydroxy-ethyl)-thiourea]
216 nM | (0.49) | CCC[C@@H]1CCCC[C@H]1NC(=S)NCCO [Compound 5, 1-(2-Hydroxy-ethyl)-3-((1R,2R)-2-propyl-cyclohexyl)-thiourea]
> 2000 nM | (0.32) | OCCNC(=S)N[C@H]1CC[C@H](O)CC1 [Compound 7, 1-(4-Hydroxy-cyclohexyl)-3-(2-hydroxy-ethyl)-thiourea]
111 nM | (0.66) | CC1=CC(NC(=S)NCCO)CC1 (stereo not drawn) [Compound 13, 1-(2-Hydroxy-ethyl)-3-(3-methyl-cyclopent-2-enyl)-thiourea]
58 nM | (0.54) | CC1=CC(NC(=S)NCCO)CCC1 (stereo not drawn) [Compound 16, 1-(2-Hydroxy-ethyl)-3-(3-methyl-cyclohex-2-enyl)-thiourea]
10 nM | (0.77) | OCCNC(=S)NCC1=C(Br)CCCC1 [Compound 18, 1-(2-Bromo-cyclohex-1-enylmethyl)-3-(2-hydroxy-ethyl)-thiourea]
55 nM | (0.46) | CCC1=CC(CNC(=S)NCCO)CCC1 (stereo not drawn) [Compound 19, 1-(2-Hydroxy-ethyl)-3-(3-ethyl-cyclohex-2-enylmethyl)-thiourea]
37 nM | (0.78) | CC1=CC(CNC(=S)NCCO)CCC1 (stereo not drawn) [Compound 20, 1-(2-Hydroxy-ethyl)-3-(3-methyl-cyclohex-2-enylmethyl)-thiourea]
125 nM | (0.68) | CC1=C(CNC(=S)NCCO)CCCC1 [Compound 23, 1-(2-Hydroxy-ethyl)-3-(2-methyl-cyclohex-1-enylmethyl)-thiourea]
772 nM | (0.71) | CCC1=C(CNC(=S)NCCO)CCCC1 [Compound 24, 1-(2-Hydroxy-ethyl)-3-(2-ethyl-cyclohex-1-enylmethyl)-thiourea]
816 nM | (0.48) | CCCCC1=CCCC1CNC(=S)NCCO (stereo not drawn) [Compound 26, 1-(2-Butyl-cyclopent-2-enylmethyl)-3-(2-hydroxy-ethyl)-thiourea]
78 nM | (0.71) | CCCC1=CCCCC1NC(=S)NCCO (stereo not drawn) [Compound 30, 1-(2-Hydroxy-ethyl)-3-(2-propyl-cyclohex-2-enyl)-thiourea]
96 nM | (0.37) | CCC1=CC(NC(=S)NCCO)CCC1 (stereo not drawn) [Compound 32, 1-(2-Hydroxy-ethyl)-3-(3-ethyl-cyclohex-2-enyl)-thiourea]

Second part, the molecule before the results:

SMILES | EC50 | fraction of activity of the standard (brimonidine) attained, Alpha 2B (number in parenthesis)
C[C@H]1CCC[C@H](NC(=S)NCCO)C1 (relative stereo) [Compound 38, (trans)-1-(2-Hydroxy-ethyl)-3-(3-methyl-cyclohexyl)-thiourea] | 1150 nM | (0.4)
OCCNC(=S)NCC1C=CCCC1 (stereo not drawn) [Compound 4, 1-(Cyclohex-2-enylmethyl)-3-(2-hydroxy-ethyl)-thiourea] | 66 nM | (0.63)
OCCNC(=S)NC1CCCCC1 [Compound 6, 1-Cyclohexyl-3-(2-hydroxy-ethyl)-thiourea] | 311 nM | (0.28)
OCCNC(=S)NCC1CCCC1 [Compound 9, 1-Cyclopentylmethyl-3-(2-hydroxy-ethyl)-thiourea] | 441 nM | (0.62)
OCCNC(=S)NCC1CCCCCC1 [Compound 10, 1-Cycloheptylmethyl-3-(2-hydroxy-ethyl)-thiourea] | 355 nM | (0.54)
CC1CC=CCC1CNC(=S)NCCO (stereo not drawn) [Compound 11, 1-(2-hydroxy-ethyl)-3-(6-methyl-cyclohex-3-enylmethyl)-thiourea] | 20 nM | (0.93)
OCCNC(=S)NCC1=C(Cl)CCCC1 [Compound 17, 1-(2-chloro-cyclohex-1-enylmethyl)-3-(2-hydroxy-ethyl)thiourea] | 15 nM | (0.63)
CC1=CCCCC1CNC(=S)NCCO (stereo not drawn) [Compound 21, 1-(2-Hydroxy-ethyl)-3-(2-methyl-cyclohex-2-enylmethyl)-thiourea] | 72 nM | (0.87)
CCC1=CCCCC1CNC(=S)NCCO (stereo not drawn) [Compound 22, 1-(2-Hydroxy-ethyl)-3-(2-ethyl-cyclohex-2-enylmethyl)-thiourea] | 126 nM | (0.73)
CC1C=C(CNC(=S)NCCO)CC1 (stereo not drawn) [Compound 28, 1-(2-Hydroxy-ethyl)-3-(3-methyl-cyclopent-1-enylmethyl)-thiourea] | 544 nM | (0.52)
OCCNC(=S)NC1CCCC=C1Br (stereo not drawn) [Compound 29, 1-(2-Bromo-cyclohex-2-enyl)-3-(2-Hydroxy-ethyl)-thiourea] | 90 nM | (0.84)
CC[C@H]1CC[C@H](NC(=S)NCCO)CC1 [Compound 36, (trans)-1-(2-Hydroxy-ethyl)-3-(4-ethyl-cyclohexyl)-thiourea] | 97 nM | (0.53)
CC1CCCCC1NC(=S)NCCO (stereo not drawn) [Compound 41, 1-(2-Methyl-cyclohexyl)-3-(2-hydroxy-ethyl)-thiourea] | 27 nM | (0.78)

Source: patent US6534542B2, “(2-hydroxy)ethyl-thioureas useful as modulators of α2B adrenergic receptors” (Allergen Sales, Inc., priority 2001, dated 2003)
